Reference: patent publication US20190352329A1, “BETA-ADRENERGIC BLOCKING COMPOUND” (KING SAUD UNIVERSITY, priority 2018, published 2019)

Experiments:
beta adrenergic receptor = beta adrenergic receptor (Cavia porcellus, UniProt H0W3H1); assay: Blockade of isoprenaline inotropic effect in electrically driven guinea pig left atrium; type: cell-based; details: result in words
Excerpt: Data are expressed as means±s. e. mean. IC50s for each drug were estimated through non-linear regression analysis using ISI software for a PC computer. Differences between non paired groups were compared by Student's t-test or ANOVA test with the statistical programme Stat works TM; a value of P equal or smaller than 0.05 was taken as the limit of statistical significance.
To test beta adrenergic receptor blocking effects of compounds 3a and 3b, their actions on the inotropic effects of the beta receptor agonist isoprenaline of the guinea pig left atrium were studied.
Male guinea-pigs weighing 300±400 g were killed by a blow on the head. The heart was quickly removed and placed in oxygenated Krebs-bicarbonate solution. The left atrium was carefully dissected and placed between bipolar platinum electrodes. The base of the atrium was tied to one of the electrodes and the tip to an isometric transducer connected to an amplifier and recorder (Cibertec, Madrid, Spain), with 1 g baseline tension. […]
This concentration was selected because it produced a submaximal and measurable inotropic effect that was reproducible after 7^−1° additions of isoprenaline, given at 30-min intervals. […] Each individual preparation served to provide a full concentration-response curve for a given compound, and from it IC50 was calculated.

[1] = 6-week application, daily dose of 60 mg/kg b.w., i.p.; cited from earlier work

Sequence of beta adrenergic receptor (H0W3H1 1-470): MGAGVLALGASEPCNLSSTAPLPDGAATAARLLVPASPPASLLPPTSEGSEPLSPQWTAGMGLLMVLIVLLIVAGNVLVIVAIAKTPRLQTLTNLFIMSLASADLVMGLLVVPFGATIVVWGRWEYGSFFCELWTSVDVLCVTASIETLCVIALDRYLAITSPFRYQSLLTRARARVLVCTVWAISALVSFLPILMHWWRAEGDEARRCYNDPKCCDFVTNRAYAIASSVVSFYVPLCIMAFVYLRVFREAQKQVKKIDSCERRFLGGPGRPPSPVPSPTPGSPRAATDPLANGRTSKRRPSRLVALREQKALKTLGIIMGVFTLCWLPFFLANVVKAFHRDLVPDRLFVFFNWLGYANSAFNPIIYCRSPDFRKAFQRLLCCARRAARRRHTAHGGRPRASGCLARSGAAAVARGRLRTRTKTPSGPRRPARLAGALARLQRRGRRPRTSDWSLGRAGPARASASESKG

SMILES	blockade of the isoprenaline inotropic response (beta adrenergic receptor)	direct cardiac effect (heart rate decrease) [1]
COC(=O)C12CCC(C)C(C)C1C1=CCC3C4(C)CCC(OCC(O)CNCC(C)C)C(C)(C)C4CCC3(C)C1(C)CC2 (stereo not drawn) [Compound 3b, methyl-3-β-[2-hydroxy-3-(isobutylamino)propoxy]-urs-12-en-28-oate]	blocked the isoprenaline inotropic response almost fully	–
CC1(C)CC[C@]2(C(=O)O)CC[C@]3(C)C(=CC[C@@H]4[C@@]5(C)CC[C@H](O)C(C)(C)[C@@H]5CC[C@]43C)[C@@H]2C1 [Oleanolic]	–	34%
COC(=O)C12CCC(C)C(C)C1C1=CCC3C4(C)CCC(OCC(O)CNC(C)C)C(C)(C)C4CCC3(C)C1(C)CC2 (stereo not drawn) [Compound 3a, methyl 3-β-[2-hydroxy-3-(isopropylamino)propoxy]-urs-12-en-28-oate]	blocked the isoprenaline inotropic response almost fully	–
